Source: PubChem BioAssay AID330 (DTP/NCI, 2004)
Values joined by “and” are separate entries in the source; they are usually repeats but may differ in a detail not shown here. Equal entries are not always repeated. Inconclusive results and toxic doses are left out. How the source made its calls: active means survival T/C of 150% or more; inactive means T/C below 125% in these data.

System: P388 leukemia ip, CD2F1 mice, survival T/C
Test: NCI In Vivo Anticancer Drug Screen. Data for tumor model P388 Leukemia (intraperitoneal) in CD2F1 (CDF1) mice
Details: endpoint: median survival time, higher = longer survival
Procedure, shortened: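 Mice carrying the transplanted tumor received test compound or vehicle. Survival was recorded in each group, and the value is the treated-group measurement divided by that of the vehicle-treated control group.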

[1] = dose: 60.0 mg/kg/injection, schedule: Q01DX005 (ip), vehicle: saline with Tween-80
[2] = dose: 120.0 mg/kg/injection, schedule: Q01DX005 (ip), vehicle: saline with Tween-80
[3] = dose: 240.0 mg/kg/injection, schedule: Q01DX005 (ip), vehicle: saline with Tween-80

Measured: T/C

O=C1c2ccccc2C(=O)c2c1cc1c(c2[N+](=O)[O-])OCO1
inactive: dose: 30.0 mg/kg/injection, schedule: Q01DX005 (ip), vehicle: saline with Tween-80 99 % of control and 107 % of control | [1] 99 % of control and 112 % of control and 113 % of control | [2] 99 % of control and 118 % of control and 120 % of control | [3] 118 % of control and 96 % of control

COc1c(OC)c(C2(O)C(=O)N(C)c3ccccc32)c2c(c1C1(O)C(=O)N(C)c3ccccc31)OCO2 (stereo not given)
inactive: [1] 95 % of control | [2] 90 % of control | [3] 89 % of control

COC(=O)CC1=NNC(=O)C1
inactive: dose: 100.0 mg/kg/injection, schedule: Q01DX001 (ip), vehicle: Klucel (hydroxypropylcellulose) (HPC) 93 % of control | dose: 200.0 mg/kg/injection, schedule: Q01DX001 (ip), vehicle: Klucel (hydroxypropylcellulose) (HPC) 99 % of control | dose: 400.0 mg/kg/injection, schedule: Q01DX001 (ip), vehicle: Klucel (hydroxypropylcellulose) (HPC) 100 % of control

O=C(Nc1ccc(C2=NCCCN2)cc1)c1ccc(C(=O)Nc2ccc(C3=NCCCN3)cc2)cc1
inactive: dose: 1.25 mg/kg/injection, schedule: Q04DX003 (ip), vehicle: saline with Tween-80 100 % of control | dose: 2.5 mg/kg/injection, schedule: Q04DX003 (ip), vehicle: saline with Tween-80 113 % of control | dose: 20.0 mg/kg/injection, schedule: Q01DX009 (ip), vehicle: saline 100 % of control | dose: 50.0 mg/kg/injection, schedule: Q04DX003 (ip), vehicle: Klucel (hydroxypropylcellulose) (HPC) 91 % of control
active: dose: 5.0 mg/kg/injection, schedule: Q01DX009 (ip), vehicle: saline 300 % of control | dose: 10.8 mg/kg/injection, schedule: Q04DX003 (ip), vehicle: Klucel (hydroxypropylcellulose) (HPC) 151 % of control | dose: 12.0 mg/kg/injection, schedule: Q04DX003 (ip), vehicle: Klucel (hydroxypropylcellulose) (HPC) 151 % of control | dose: 18.0 mg/kg/injection, schedule: Q04DX003 (ip), vehicle: Klucel (hydroxypropylcellulose) (HPC) 165 % of control and 186 % of control and 198 % of control | dose: 20.0 mg/kg/injection, schedule: Q04DX003 (ip), vehicle: Klucel (hydroxypropylcellulose) (HPC) 185 % of control | dose: 20.0 mg/kg/injection, schedule: Q04DX003 (ip), vehicle: saline with Tween-80 204 % of control | dose: 30.0 mg/kg/injection, schedule: Q04DX003 (ip), vehicle: Klucel (hydroxypropylcellulose) (HPC) 201 % of control | dose: 33.3 mg/kg/injection, schedule: Q04DX003 (ip), vehicle: Klucel (hydroxypropylcellulose) (HPC) 250 % of control

O=C(NC(=NC(=Nc1ccc([N+](=O)[O-])cc1)c1ccccc1)c1ccccc1)c1ccccc1
inactive: dose: 50.0 mg/kg/injection, schedule: Q01DX009 (ip), vehicle: saline with Tween-80 93 % of control | dose: 100.0 mg/kg/injection, schedule: Q01DX009 (ip), vehicle: saline with Tween-80 99 % of control | dose: 200.0 mg/kg/injection, schedule: Q01DX009 (ip), vehicle: saline with Tween-80 90 % of control

CCC1(C#N)N=C(c2ccccc2)c2ccccc2N1C(=O)OC (stereo not given)
inactive: [1] 96 % of control | [2] 98 % of control | [3] 98 % of control

CCCCCCCCCCCCCCCC[N+](C)(C)C(C)c1ccccc1 (stereo not given)
inactive: dose: 0.78 mg/kg/injection, schedule: Q04DX003 (ip), vehicle: saline with Tween-80 104 % of control and 106 % of control | dose: 1.56 mg/kg/injection, schedule: Q04DX003 (ip), vehicle: saline with Tween-80 116 % of control and 118 % of control | dose: 6.25 mg/kg/injection, schedule: Q04DX003 (ip), vehicle: saline with Tween-80 117 % of control

CC(=O)Nc1sccc1S(=O)(=O)c1ccsc1NC(C)=O
inactive: dose: 100.0 mg/kg/injection, schedule: Q04DX002 (ip), vehicle: saline with Tween-80 100 % of control | dose: 200.0 mg/kg/injection, schedule: Q04DX002 (ip), vehicle: saline with Tween-80 105 % of control | dose: 400.0 mg/kg/injection, schedule: Q04DX002 (ip), vehicle: saline with Tween-80 98 % of control

COC(=O)CCc1cc(=O)oc2c3c(cc(OC)c12)OC1OC(=O)CC31 (stereo not given)
inactive: dose: 8.75 mg/kg/injection, schedule: Q01DX005 (ip), vehicle: Klucel (hydroxypropylcellulose) (HPC) 90 % of control | dose: 17.5 mg/kg/injection, schedule: Q01DX005 (ip), vehicle: Klucel (hydroxypropylcellulose) (HPC) 95 % of control | dose: 35.0 mg/kg/injection, schedule: Q01DX005 (ip), vehicle: Klucel (hydroxypropylcellulose) (HPC) 90 % of control

N#CC(COC(=O)c1ccccc1)OC(=O)c1ccccc1 (stereo not given)
inactive: dose: 50.0 mg/kg/injection, schedule: Q01DX005 (ip), vehicle: saline with Tween-80 91 % of control | dose: 100.0 mg/kg/injection, schedule: Q01DX005 (ip), vehicle: saline with Tween-80 95 % of control | dose: 200.0 mg/kg/injection, schedule: Q01DX005 (ip), vehicle: saline with Tween-80 86 % of control
